Source: US6288119A, “11,15-O-dialkylprostaglandin E derivatives, process for producing the same, and drugs containing the same as the active ingredient” (Ono Pharmaceuticals Co., Ltd., priority 1997, dated 2001)

Tests used:
mouse EP1 = target: T1, mouse EP1 (Mus musculus, UniProt P35375); experiment: Binding assay using expression cell of prostanoids receptor subtype, EP1 ([3H]-PGE2 binding inhibition, CHO membrane fraction); conditions: 2.5 nM [3H]-PGE2, 1 hour at room temperature, pH 6.0, read-out: Dissociation Constant Ki, EP1
T1 construct: expressed in transfected cells; host or cells: CHO cells
T1 sequence (P35375 1-405): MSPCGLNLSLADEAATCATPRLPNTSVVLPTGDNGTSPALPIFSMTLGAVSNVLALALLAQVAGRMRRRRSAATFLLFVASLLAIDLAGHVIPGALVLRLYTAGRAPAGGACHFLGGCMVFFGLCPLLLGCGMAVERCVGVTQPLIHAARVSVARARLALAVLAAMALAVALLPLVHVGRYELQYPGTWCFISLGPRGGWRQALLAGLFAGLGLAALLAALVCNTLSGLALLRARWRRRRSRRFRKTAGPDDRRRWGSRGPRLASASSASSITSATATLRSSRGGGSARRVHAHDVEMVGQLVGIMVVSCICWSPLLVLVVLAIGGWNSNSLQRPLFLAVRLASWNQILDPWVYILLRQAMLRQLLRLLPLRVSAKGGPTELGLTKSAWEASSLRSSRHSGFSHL
Protocol: (§1) (i) Binding assay using expression cell of prostanoids receptor subtype
(§2) The preparation of membrane fraction was carried out according to the method of Sugimoto et al. [J. Biol. Chem., 267, 6463-6466 (1992)], using expression CHO cell of the prostanoids receptor subtype (mouse EP1, EP2, EP3α, EP4).
(§3) The standard assay mixture containing membrane fraction (0.5 mg/ml), and [3H]-PGE2 in a final volume of 200 μl was incubated for 1 hour at room temperature. The reaction was terminated by addition of 3 ml of ice-cooled buffer. The mixture was filtered through a GF/B glass filter under reduced pressure. The radioactivity associated with the filter was measured by liquid scintillation counting.
(§4) Kd and Bmax values were determined from Scatchard plots [Ann. N.Y. Acad. Sci., 51, 660 (1949)]. Non-specific binding was calculated as the binding in the presence of an excess (2.5 μM) of unlabeled PGE2. In the measurement of 3H-PGE2 binding inhibitory activity, 2.5 nM of [3H]-PGE2 and various concentrations of the compounds of the present invention were added. The following buffer was used in all reactions.
(§5) Buffer; 10 mM potassium phosphate (pH 6.0), 1 mM EDTA, 10 mM MgCl2, 0.1 M NaCl.
(§6) The dissociation constant Ki (μM) of each compound was calculated by the following equation.

mouse EP2 = target: T2, mouse EP2 (Mus musculus, UniProt Q62053); experiment: Binding assay using expression cell of prostanoids receptor subtype, EP2 ([3H]-PGE2 binding inhibition, CHO membrane fraction); conditions: 2.5 nM [3H]-PGE2, 1 hour at room temperature, pH 6.0, read-out: Dissociation Constant Ki, EP2
T2 construct: expressed in transfected cells; host or cells: CHO cells
T2 sequence (Q62053 whole entry): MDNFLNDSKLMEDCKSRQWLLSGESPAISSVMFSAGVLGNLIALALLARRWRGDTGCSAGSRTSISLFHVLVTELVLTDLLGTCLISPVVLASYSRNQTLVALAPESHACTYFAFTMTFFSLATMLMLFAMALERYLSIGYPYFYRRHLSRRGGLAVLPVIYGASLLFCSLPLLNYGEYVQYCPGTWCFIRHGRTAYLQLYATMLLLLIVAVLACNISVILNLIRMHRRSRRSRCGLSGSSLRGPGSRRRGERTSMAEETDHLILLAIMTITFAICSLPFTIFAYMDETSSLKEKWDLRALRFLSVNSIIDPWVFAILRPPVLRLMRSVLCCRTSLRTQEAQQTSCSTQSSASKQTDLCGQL
Protocol: as §1, §2, §3, §4, §5, §6

mouse EP3α = target: T3, mouse EP3α (Mus musculus, UniProt P30557); experiment: Binding assay using expression cell of prostanoids receptor subtype, EP3α ([3H]-PGE2 binding inhibition, CHO membrane fraction); conditions: 2.5 nM [3H]-PGE2, 1 hour at room temperature, pH 6.0, read-out: Dissociation Constant Ki, EP3α
T3 construct: expressed in transfected cells; host or cells: CHO cells
T3 sequence (P30557 1-365): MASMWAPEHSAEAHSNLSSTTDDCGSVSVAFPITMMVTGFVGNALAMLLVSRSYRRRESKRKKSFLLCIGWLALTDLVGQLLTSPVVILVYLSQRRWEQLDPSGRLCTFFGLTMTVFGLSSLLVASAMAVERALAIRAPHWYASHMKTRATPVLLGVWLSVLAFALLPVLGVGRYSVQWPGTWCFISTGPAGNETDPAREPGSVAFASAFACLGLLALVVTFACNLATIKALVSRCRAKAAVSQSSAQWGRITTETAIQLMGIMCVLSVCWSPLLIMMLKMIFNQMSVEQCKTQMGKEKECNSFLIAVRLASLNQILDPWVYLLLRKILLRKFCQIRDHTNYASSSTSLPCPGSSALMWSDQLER
Protocol: as §1, §2, §3, §4, §5, §6

mouse EP4 = target: T4, mouse EP4 (Mus musculus, UniProt P32240); experiment: Binding assay using expression cell of prostanoids receptor subtype, EP4 ([3H]-PGE2 binding inhibition, CHO membrane fraction); conditions: 2.5 nM [3H]-PGE2, 1 hour at room temperature, pH 6.0, read-out: Dissociation Constant Ki, EP4
T4 construct: expressed in transfected cells; host or cells: CHO cells
T4 sequence (P32240 whole entry): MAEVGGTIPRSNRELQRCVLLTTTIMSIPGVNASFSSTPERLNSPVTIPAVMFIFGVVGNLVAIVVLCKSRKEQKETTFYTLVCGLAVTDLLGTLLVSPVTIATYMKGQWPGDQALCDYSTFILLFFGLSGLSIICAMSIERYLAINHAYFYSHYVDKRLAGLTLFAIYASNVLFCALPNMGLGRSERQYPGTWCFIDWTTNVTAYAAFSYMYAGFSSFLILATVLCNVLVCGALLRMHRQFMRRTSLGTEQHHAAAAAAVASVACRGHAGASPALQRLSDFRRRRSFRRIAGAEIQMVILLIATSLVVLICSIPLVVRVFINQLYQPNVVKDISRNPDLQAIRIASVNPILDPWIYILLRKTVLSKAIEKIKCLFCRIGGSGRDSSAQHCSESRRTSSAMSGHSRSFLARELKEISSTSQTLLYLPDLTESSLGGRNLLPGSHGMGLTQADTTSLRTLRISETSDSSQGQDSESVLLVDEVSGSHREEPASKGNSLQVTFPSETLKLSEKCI
Protocol: as §1, §2, §3, §4, §5, §6

SMILES	Ki (mouse EP1)	Ki (mouse EP2)	Ki (mouse EP3α)	Ki (mouse EP4)
CCCCC[C@@H](/C=C/[C@H]1[C@H](OC)CC(=O)[C@@H]1C/C=C\CCCC(=O)O)OC [Example 1, 11α,15α-Dimethoxy-9-oxoprosta-5Z,13E-dienoic acid]	> 10 µM	2.4 µM	0.0036 µM	4.2 µM
CCCCC[C@@H](/C=C/[C@@H]1[C@@H](C/C=C\CCCC(=O)O)[C@H](Cl)C[C@H]1OC)OC [1(h), 11α,15α-Dimethoxy-9β-chloroprosta-5Z,13E-dienoic acid]	0.039 µM	0.034 µM	0.0017 µM	0.073 µM
COC(/C=C/[C@H]1[C@H](OC)CC(=O)[C@@H]1C/C=C\CCCC(=O)O)COc1ccccc1 (stereo partly drawn) [1(f), 11α,15α-Dimethoxy-9-oxo-16-phenoxy-17,18,19,20-tetranorprosta-5Z,13E-dienoic acid]	0.31 µM	> 10 µM	0.0029 µM	> 10 µM
CCCCC[C@@H](/C=C/[C@H]1[C@H](OC)CC(=O)[C@@H]1CCCCCCC(=O)O)OC [1(a), 11α,15α-Dimethoxy-9-oxoprosta-13E-enoic acid]	> 10 µM	1.1 µM	0.0063 µM	1.3 µM

Next, values leading:

Ki (mouse EP1)	Ki (mouse EP2)	Ki (mouse EP3α)	Ki (mouse EP4)	SMILES
0.97 µM	0.53 µM	0.0027 µM	2.5 µM	CCCCC(C)(C)[C@@H](/C=C/[C@H]1[C@H](OC)CC(=O)[C@@H]1C/C=C\CCCC(=O)O)OC [1(b), 11α,15α-Dimethoxy-9-oxo-16,16-dimethylprosta-5Z,13E-dienoic acid]
2.4 µM	1.3 µM	0.0061 µM	3.7 µM	CCCCCC[C@@H](/C=C/[C@H]1[C@H](OC)CC(=O)[C@@H]1C/C=C\CCCC(=O)O)OC [1(e), 11α,15α-Dimethoxy-9-oxo-20-methylprosta-5Z,13E-dienoic acid]
> 10 µM	0.6 µM	0.04 µM	5.9 µM	CCCCC[C@@H](/C=C/[C@H]1[C@H](OCC)CC(=O)[C@@H]1C/C=C\CCCC(=O)O)OCC [Example 2, 11α,15α-Diethoxy-9-oxoprosta-5Z,13E -dienoic acid]
